Test results published in PubChem BioAssay AID588616 (The Scripps Research Institute Molecular Screening Center, 2011).

Tests used:
[1] = tested on: DLD-1 cells, phospho-p38 western blot, 24 h; assay: phosphorylated p38 MAPK abundance shift – DLD1 cells, chemiluminescent western blot, powder samples, counter-screen for KLF5 inhibitor project, late-stage follow-up (AID 588616); details: measured here: phospho-p38 band fold change vs DMSO; at 10 µM; stronger effect = lower value
[2] = target: Mitogen-activated protein kinase 14 (Homo sapiens) (UniProt Q16539); assay: as above; details: DLD-1 cells, phospho-p38 western blot, 24 h; at 10 µM; stronger effect = higher value
Chain of Mitogen-activated protein kinase 14 (Homo sapiens) (Q16539 whole entry, looked up): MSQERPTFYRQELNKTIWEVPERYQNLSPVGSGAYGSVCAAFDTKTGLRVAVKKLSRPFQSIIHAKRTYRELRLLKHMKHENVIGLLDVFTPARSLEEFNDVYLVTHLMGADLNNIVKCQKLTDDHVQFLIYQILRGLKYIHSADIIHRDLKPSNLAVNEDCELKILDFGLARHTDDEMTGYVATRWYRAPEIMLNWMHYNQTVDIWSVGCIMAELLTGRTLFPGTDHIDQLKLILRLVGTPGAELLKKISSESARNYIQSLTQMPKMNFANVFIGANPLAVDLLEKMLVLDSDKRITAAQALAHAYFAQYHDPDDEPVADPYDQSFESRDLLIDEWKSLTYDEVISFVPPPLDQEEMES

SMILES | fold change [1] | inhibition [2] [%]
CN(C(=O)CNC(=O)/C=C/c1cccc(Cl)c1)C1CCS(=O)(=O)CC1 | 2.44 | -144
CN(C(=O)COC(=O)/C=C/c1cccc([N+](=O)[O-])c1)C1CCS(=O)(=O)C1 (stereo unspecified) | 2.97 | -197
CN(C(=O)CNC(=O)/C=C/c1cccc(Cl)c1)C1CCS(=O)(=O)C1 (stereo unspecified) | 2.14 | -114
